Laboratory results from PubChem BioAssay AID248 (DTP/NCI, 2004).
Toxic doses and inconclusive results are not listed. No stated cut-off is given here; in the data, active means T/C of 150% or more; inactive means T/C below 125%.

Tested on: L1210 leukemia ip in BDF1 mice, survival T/C
Assay: NCI In Vivo Anticancer Drug Screen. Data for tumor model L1210 Leukemia (intraperitoneal) in B6D2F1 (BDF1) mice
Settings: endpoint: mean survival time, higher = longer survival
Summary of the method: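 Transplantable tumor model; survival measured in treated vs vehicle control mice. Value = treated/control.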

[1] = dose: 100.0 mg/kg/injection, schedule: Q01DX001 (sc), vehicle: steriod suspending solution
[2] = dose: 200.0 mg/kg/injection, schedule: Q01DX001 (sc), vehicle: steriod suspending solution
[3] = dose: 400.0 mg/kg/injection, schedule: Q01DX001 (sc), vehicle: steriod suspending solution
[4] = dose: 100.0 mg/kg/injection, schedule: Q01DX009 (ip), vehicle: saline
[5] = dose: 200.0 mg/kg/injection, schedule: Q01DX009 (ip), vehicle: saline
[6] = dose: 100.0 mg/kg/injection, schedule: Q04DX003 (ip), vehicle: saline with Tween-80
[7] = dose: 200.0 mg/kg/injection, schedule: Q04DX003 (ip), vehicle: saline with Tween-80
[8] = dose: 400.0 mg/kg/injection, schedule: Q04DX003 (ip), vehicle: saline with Tween-80
[9] = dose: 100.0 mg/kg/injection, schedule: Q01DX009 (ip), vehicle: saline with Tween-80
[10] = dose: 200.0 mg/kg/injection, schedule: Q01DX009 (ip), vehicle: saline with Tween-80
[11] = dose: 400.0 mg/kg/injection, schedule: Q01DX009 (ip), vehicle: saline with Tween-80
[12] = dose: 75.0 mg/kg/injection, schedule: Q01DX001 (ip), vehicle: saline
[13] = dose: 150.0 mg/kg/injection, schedule: Q01DX001 (ip), vehicle: saline
[14] = dose: 300.0 mg/kg/injection, schedule: Q01DX001 (ip), vehicle: saline

Measured: T/C

O=[As](O)(CC(O)COc1ccc(Cl)cc1Cl)c1ccc(Cl)cc1 (stereo not drawn)
inactive: dose: 6.25 mg/kg/injection, schedule: Q01DX001 (ip), vehicle: saline with Tween-80 105 % of control | dose: 12.5 mg/kg/injection, schedule: Q01DX001 (ip), vehicle: saline with Tween-80 98 % of control | dose: 25.0 mg/kg/injection, schedule: Q01DX001 (ip), vehicle: saline with Tween-80 98 % of control | dose: 100.0 mg/kg/injection, schedule: Q01DX001 (ip), vehicle: saline with Tween-80 91 % of control

CNC(=O)O[C@H]1CC[C@@]2(C)C(=CC[C@H]3[C@@H]4CC[C@H]([C@H](C)CCCC(C)C)[C@@]4(C)CC[C@@H]32)C1
inactive: [1] 87 % of control | [2] 97 % of control | [3] 92 % of control

CC(=O)Nc1ccc(/C=N/Nc2c([N+](=O)[O-])cc(C)cc2[N+](=O)[O-])cc1
inactive: [4] 98 % of control | [5] 96 % of control | dose: 400.0 mg/kg/injection, schedule: Q01DX009 (ip), vehicle: saline 94 % of control

Clc1ccc(C=Nc2ccc(Cl)cc2)cc1
inactive: [6] 108 % of control | [7] 90 % of control | [8] 106 % of control

Nc1nc(N)c2[nH]c(CCc3ccccc3)nc2n1
inactive: dose: 25.0 mg/kg/injection, schedule: Q04DX002 (ip), vehicle: Klucel (hydroxypropylcellulose) (HPC) 95 % of control | dose: 50.0 mg/kg/injection, schedule: Q04DX002 (ip), vehicle: Klucel (hydroxypropylcellulose) (HPC) 91 % of control | dose: 100.0 mg/kg/injection, schedule: Q04DX002 (ip), vehicle: Klucel (hydroxypropylcellulose) (HPC) 98 % of control

CC1(C)CC2CCC1(Cl)CC2Cl (stereo not drawn)
inactive: dose: 50.0 mg/kg/injection, schedule: Q01DX009 (ip), vehicle: saline + alcohol 100 % of control | dose: 100.0 mg/kg/injection, schedule: Q01DX009 (ip), vehicle: saline + alcohol 93 % of control

c1ccc2c(c1)Cc1cc(NC3=NCCO3)ccc1-2
inactive: dose: 50.0 mg/kg/injection, schedule: Q04DX002 (ip), vehicle: saline with Tween-80 93 % of control | dose: 100.0 mg/kg/injection, schedule: Q04DX002 (ip), vehicle: saline with Tween-80 100 % of control | [6] 101 % of control | dose: 200.0 mg/kg/injection, schedule: Q04DX002 (ip), vehicle: saline with Tween-80 104 % of control | [7] 89 % of control | dose: 400.0 mg/kg/injection, schedule: Q04DX002 (ip), vehicle: saline with Tween-80 93 % of control | [8] 87 % of control

CC(=O)c1ccc(F)cc1
inactive: dose: 50.0 mg/kg/injection, schedule: Q01DX009 (ip), vehicle: Klucel (hydroxypropylcellulose) (HPC) 98 % of control | dose: 100.0 mg/kg/injection, schedule: Q01DX009 (ip), vehicle: Klucel (hydroxypropylcellulose) (HPC) 98 % of control | dose: 100.0 mg/kg/injection, schedule: Q04DX003 (ip), vehicle: Klucel (hydroxypropylcellulose) (HPC) 86 % of control | dose: 200.0 mg/kg/injection, schedule: Q01DX009 (ip), vehicle: Klucel (hydroxypropylcellulose) (HPC) 97 % of control | dose: 200.0 mg/kg/injection, schedule: Q04DX003 (ip), vehicle: Klucel (hydroxypropylcellulose) (HPC) 98 % of control

COC(OC)c1[nH]c(=S)[nH]c(=O)c1Cc1cc([N+](=O)[O-])ccc1O
inactive: [9] 100 % of control | [6] 101 % of control | [10] 91 % of control | [7] 97 % of control | [11] 93 % of control | [8] 94 % of control

O=C(O)C(Cc1ccc(O)cc1)c1ccccc1 (stereo not drawn)
inactive: dose: 100.0 mg/kg/injection, schedule: Q04DX003 (ip), vehicle: saline 98 % of control | dose: 200.0 mg/kg/injection, schedule: Q04DX003 (ip), vehicle: saline 94 % of control | dose: 400.0 mg/kg/injection, schedule: Q04DX003 (ip), vehicle: saline 96 % of control

OCCNc1ccc(C2=NCCO2)cc1
inactive: [9] 106 % of control | [10] 97 % of control | [11] 91 % of control

Cc1ccccc1S(=O)(=O)Cc1cc(Cl)cc(Cl)c1O
inactive: dose: 100.0 mg/kg/injection, schedule: Q01DX001 (ip), vehicle: saline 90 % of control | dose: 200.0 mg/kg/injection, schedule: Q01DX001 (ip), vehicle: saline 88 % of control | dose: 400.0 mg/kg/injection, schedule: Q01DX001 (ip), vehicle: saline 97 % of control

C1CCC2C(C1)CCC1CCCCC12 (stereo not drawn)
inactive: dose: 62.5 mg/kg/injection, schedule: Q01DX001 (ip), vehicle: carboxymethylcellulose (CMC) 100 % of control | dose: 125.0 mg/kg/injection, schedule: Q01DX001 (ip), vehicle: carboxymethylcellulose (CMC) 100 % of control | dose: 250.0 mg/kg/injection, schedule: Q01DX001 (ip), vehicle: carboxymethylcellulose (CMC) 96 % of control | dose: 500.0 mg/kg/injection, schedule: Q01DX001 (ip), vehicle: carboxymethylcellulose (CMC) 102 % of control

c1cc2ccsc2cn1
inactive: dose: 12.5 mg/kg/injection, schedule: Q01DX009 (ip), vehicle: saline with Tween-80 104 % of control | dose: 12.5 mg/kg/injection, schedule: Q04DX003 (ip), vehicle: saline with Tween-80 110 % of control | dose: 25.0 mg/kg/injection, schedule: Q01DX009 (ip), vehicle: saline with Tween-80 103 % of control | dose: 25.0 mg/kg/injection, schedule: Q04DX003 (ip), vehicle: saline with Tween-80 104 % of control | dose: 50.0 mg/kg/injection, schedule: Q01DX009 (ip), vehicle: saline with Tween-80 102 % of control | dose: 50.0 mg/kg/injection, schedule: Q04DX003 (ip), vehicle: saline with Tween-80 103 % of control

COC(=O)/C=C\n1cnc2ccccc21
inactive: [12] 109 % of control | [13] 112 % of control | [14] 107 % of control

CC(C)(Oc1ccc(Cl)cc1)C(=O)NC(N)=O
inactive: dose: 50.0 mg/kg/injection, schedule: Q01DX009 (ip), vehicle: saline 95 % of control | [4] 113 % of control | [5] 103 % of control

CCSC1C(O)C(C(O)CO)OC1n1ccc(=O)[nH]c1=O (stereo not drawn)
inactive: dose: 100.0 mg/kg/injection, schedule: Q01DX005 (ip), vehicle: saline 96 % of control | dose: 200.0 mg/kg/injection, schedule: Q01DX005 (ip), vehicle: saline 98 % of control

COC(=O)/C=C\C(=O)O (tested in a mixture with another compound)
inactive: dose: 15.5 mg/kg/injection, schedule: Q#A X Z (oral), vehicle: carboxymethylcellulose (CMC) 98 % of control | dose: 31.25 mg/kg/injection, schedule: Q#A X Z (ip), vehicle: carboxymethylcellulose (CMC) 101 % of control | dose: 31.5 mg/kg/injection, schedule: Q#A X Z (oral), vehicle: carboxymethylcellulose (CMC) 100 % of control | dose: 63.0 mg/kg/injection, schedule: Q#A X Z (oral), vehicle: carboxymethylcellulose (CMC) 100 % of control | dose: 126.0 mg/kg/injection, schedule: Q#A X Z (oral), vehicle: carboxymethylcellulose (CMC) 100 % of control

NC(CCl)=NCCN1CCNC1=O
inactive: dose: 100.0 mg/kg/injection, schedule: Q04DX002 (ip), vehicle: saline 107 % of control | dose: 200.0 mg/kg/injection, schedule: Q04DX002 (ip), vehicle: saline 104 % of control | dose: 400.0 mg/kg/injection, schedule: Q04DX002 (ip), vehicle: saline 96 % of control

COc1ccc(C23OC2Oc2cc(OC4CCCCO4)ccc2C3O)cc1 (stereo not drawn)
inactive: dose: 50.0 mg/kg/injection, schedule: Q01DX001 (sc), vehicle: steriod suspending solution 101 % of control | [1] 101 % of control | [2] 101 % of control | [3] 95 % of control

Cc1cc(C)c(C(=O)O)cc1C
inactive: [12] 102 % of control | [13] 94 % of control | [14] 102 % of control
